Data published in PubChem BioAssay AID1324 (NMMLSC, 2008).
pEC50: −log10 of the molar value. Active and inactive are the calls of the source. No rule for the calls is given here.

molecular target: glutathione S-transferase (GST-GSH binding); test: GST–glutathione interaction disruption – biochemical, multiplex beads, flow cytometry, HPSMTB buffer, profiling panel (AID 1324); conditions: multiplex bead flow cytometry, MCF;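 also: glutathione beads loaded with GST-green fluorescent protein and no fluorescent Bim peptide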

Q: For `O=C(Nc1cccc(Cl)c1)Nc1ccnc(-c2cccnc2)n1`, which EC50 is on record?
A: inactive

Q: `Cc1ccnc(Nc2nc(-c3c(C)nc4sccn34)cs2)c1` was tested. Which EC50 did it give?
A: inactive

Q: How did the pEC50 turn out when `CN(/N=C/C=C/c1ccccc1)C1=NS(=O)(=O)c2ccccc21` was run?
A: 5.60

same assay, conditions: multiplex bead flow cytometry, MCF, active compounds read high, concentration not given here

Q: With `O=C(Cc1ccccc1)N/N=C/c1cccn1-c1ccc([N+](=O)[O-])cc1` as the molecule, how does the percent span inhibition read?
A: inactive

Q: How did the percent span inhibition turn out when `C=CCn1c(C)c(C(C)=O)c(N2CCOCC2)nc1=S` was run?
A: inactive

Q: With `CCOc1ccc(C(=O)Nc2nnn(CC)n2)cc1` as the molecule, how does the percent span inhibition read?
A: inactive

Q: With `CCN(CC)c1ccc(NC(=O)c2cccc(C)c2)cc1S(=O)(=O)Nc1ccccc1OC` as the molecule, how does the percent span inhibition read?
A: inactive

Q: `O=C(c1ccc(CNS(=O)(=O)c2ccc(Br)cc2)cc1)N1CCCC1` was tested. Which percent span inhibition did it give?
A: inactive

Q: Which percent span inhibition does the source give for `Cc1ccc(/C=C2/NC(=O)N(Cc3ccccc3)C2=O)o1` here?
A: inactive

Q: How did the percent span inhibition turn out when `O=C(NNC(=O)C12CC3CC(CC(C3)C1)C2)c1ccco1` was run?
A: inactive

Q: `Nc1ccc(-c2cn3cccnc3n2)cc1` was tested. Which percent span inhibition did it give?
A: inactive

Q: For `CS(=O)(=O)NN1C(=O)c2ccccc2NC1c1cccc2cccnc12` (centres undefined), which percent span inhibition is on record?
A: inactive

Q: For `CCN(CC)CCN(C(=O)c1ccc(N2C(=O)CCC2=O)cc1)c1nc2cc3c(cc2s1)OCCO3`, which percent span inhibition is on record?
A: inactive

Q: Which percent span inhibition does the source give for `CCOC(=O)c1c(NC(C)=O)sc2c(O)c(Br)cc(Br)c12` here?
A: inactive

Q: How did the percent span inhibition turn out when `COc1cc(/C=C2/NC(=O)N(Cc3ccccc3F)C2=O)cc(OC)c1O` was run?
A: inactive

Q: With `CCNC(=S)Nc1ccc(OCC)cc1` as the molecule, how does the percent span inhibition read?
A: inactive

Q: How did the percent span inhibition turn out when `COc1ccc(S(=O)(=O)NCCSc2ccc(Cl)cc2)cc1OC` was run?
A: inactive

Q: With `COc1cc(/C=C2\S/C(=N/S(=O)(=O)c3ccccc3)NC2=O)c([N+](=O)[O-])cc1OC` as the molecule, how does the percent span inhibition read?
A: inactive

Q: For `Clc1ccc2c(N/N=C/c3ccccc3Br)ccnc2c1`, which percent span inhibition is on record?
A: inactive

Q: With `COc1ccc(OC)c2sc(NC(=O)c3ccc(Br)s3)nc12` as the molecule, how does the percent span inhibition read?
A: inactive

Q: With `C#CCOCCOCCOCCNc1nc(N2CCN(C(=O)[C@H](CCCCN)n3cc(CCCC)nn3)CC2)nc(N2CCN(C(=O)[C@H](Cc3ccc(O)cc3)n3cc(CCO)nn3)CC2)n1` as the molecule, how does the percent span inhibition read?
A: inactive

Q: `CCOc1c(Cl)cc(CNc2ccc(N3CCCC3)cc2)cc1OC` was tested. Which percent span inhibition did it give?
A: inactive

Q: With `Cc1ccc(-c2cc(-c3ccccc3)c(C#N)c(N)n2)o1` as the molecule, how does the percent span inhibition read?
A: inactive

Q: For `O=C(c1cnccn1)N1CCN(c2ccccc2F)CC1`, which percent span inhibition is on record?
A: inactive

Q: Which percent span inhibition does the source give for `COc1ccc(/C=C(/C(=O)c2cccs2)N2C=CC=CC2=C(C#N)C#N)cc1` here?
A: inactive

Q: `Cc1ccnc(NS(=O)(=O)c2ccc(NC(=O)c3c(-c4ccccc4Cl)noc3C)cc2)n1` was tested. Which percent span inhibition did it give?
A: inactive

Q: `COc1cccc(/C=N/NC(=O)c2cc3cc([N+](=O)[O-])ccc3s2)c1O` was tested. Which percent span inhibition did it give?
A: inactive

Q: For `Cc1ccc2c(C)c(C(=O)Nc3nnc(C)s3)oc2c1`, which percent span inhibition is on record?
A: inactive

Q: How did the percent span inhibition turn out when `Oc1ccc(C=NCC2COc3ccccc3O2)cc1` (centres undefined) was run?
A: inactive

Q: Which percent span inhibition does the source give for `C=CCSc1nc(N)c2c(C)c(C)sc2n1` here?
A: inactive

Q: `O=C(NC1=C(Nc2ccc(Cl)cc2)C(=O)c2ccccc2C1=O)c1ccccc1` was tested. Which percent span inhibition did it give?
A: inactive

Q: Which percent span inhibition does the source give for `C=CS(=O)c1sc(Cl)c(N2CCOCC2)c1[N+](=O)[O-]` (centres undefined) here?
A: inactive

Q: `Cc1cc(/C=C(/C#N)C(=O)Nc2ccc(Cl)cc2)c(C)n1-c1cccnc1` was tested. Which percent span inhibition did it give?
A: inactive

Q: Which percent span inhibition does the source give for `C#CCOCCOCCOCCNc1nc(N2CCN(C(=O)[C@H]([C@@H](C)CC)n3cc([C@@H](N)CC(C)C)nn3)CC2)nc(N2CCN(C(=O)[C@H](Cc3cc4ccccc4[nH]3)n3cc([C@@H](N)Cc4ccc(O)cc4)nn3)CC2)n1` here?
A: inactive

Q: How did the percent span inhibition turn out when `CN1C2C=C3C(C#N)=C(N)C(C#N)(C#N)[C@@H](c4ccsc4)[C@@H]3C1CC2` (some centres undefined) was run?
A: inactive

Q: How did the percent span inhibition turn out when `Cc1ccc(-c2cc(-c3ccc(F)cc3)nc(N)c2C#N)o1` was run?
A: inactive

Q: For `COC(=O)c1[nH]c2ccccc2c1NC(=O)c1ccccc1[N+](=O)[O-]`, which percent span inhibition is on record?
A: inactive

Q: How did the percent span inhibition turn out when `Cc1cccc(N2C(S)=C(C#N)C(=O)NC2c2cccs2)c1` (centres undefined) was run?
A: inactive

Q: Which percent span inhibition does the source give for `COP(=O)(CC(=O)O)c1ccccc1` (centres undefined) here?
A: inactive

Q: For `O=C(/C=C/c1ccc(-c2ccccc2[N+](=O)[O-])o1)c1ccc(F)cc1`, which percent span inhibition is on record?
A: inactive

Q: Which percent span inhibition does the source give for `CCOC(=O)c1snc(-c2ccc(F)cc2)c1N` here?
A: inactive

Q: Which percent span inhibition does the source give for `COc1cc(/C=N/Nc2nc3c(c(=O)n(C)c(=O)n3C)n2Cc2ccccc2)ccc1OC(=O)c1ccco1` here?
A: inactive

Q: How did the percent span inhibition turn out when `CCOc1ccc2nc(SCC(=O)N3c4ccccc4Sc4ccccc43)c(C#N)cc2c1` was run?
A: inactive

Q: With `CCOc1ccc(NCc2ccccc2OCc2cccc(F)c2)cc1` as the molecule, how does the percent span inhibition read?
A: inactive

Q: With `Clc1ccc2c(N/N=C/c3cccc(Br)c3)ccnc2c1` as the molecule, how does the percent span inhibition read?
A: inactive

Q: Which percent span inhibition does the source give for `O=[N+]([O-])c1ccc(-c2cn(-c3ccc(Cl)cc3)c(=S)[nH]2)cc1` here?
A: inactive

Q: Which percent span inhibition does the source give for `COc1ccc(C(=S)N2CCCCCC2)cc1` here?
A: inactive

Q: `COc1ccc(NC(=O)c2ccc(CN3CCN(c4ccccc4)CC3)cc2)cc1` was tested. Which percent span inhibition did it give?
A: inactive

Q: How did the percent span inhibition turn out when `Cc1ccc(-c2ccc(/C=C3\SC(N4CCOCC4)=NC3=O)o2)cc1` was run?
A: inactive

Q: How did the percent span inhibition turn out when `Cc1ccc(C)c(/C=C/C(=O)c2ccccc(=O)c2O)c1` was run?
A: inactive

Q: How did the percent span inhibition turn out when `Cc1nc(=S)c2ccccc2[nH]1` was run?
A: inactive

Q: For `CCC(=O)OCCNc1cc(Sc2nc3ccccc3[nH]2)c2nonc2c1[N+](=O)[O-]`, which percent span inhibition is on record?
A: inactive

Q: `Cn1cccc1CC(=O)N/N=C\c1ccccc1` was tested. Which percent span inhibition did it give?
A: inactive

Q: `O=C(OCC(=O)c1ccc[nH]1)c1ccccc1` was tested. Which percent span inhibition did it give?
A: inactive

Q: `CCn1cc(C=C2C(=O)c3ccccc3C2=O)c2ccccc21` was tested. Which percent span inhibition did it give?
A: inactive

Q: `COc1ccc(CC(=O)Nc2ccc3nc(C)sc3c2)cc1OC` was tested. Which percent span inhibition did it give?
A: inactive

Q: `Cc1ccc2cc(C)c(Sc3nnnn3-c3ccccc3)nc2c1` was tested. Which percent span inhibition did it give?
A: inactive

Q: How did the percent span inhibition turn out when `COc1ccc(N=C2NC(=O)/C(=C\C=C\c3ccco3)S2)cc1` was run?
A: inactive

Q: Which percent span inhibition does the source give for `Cc1ccc(NC(=S)N2CCn3cccc3C2c2cccnc2)cc1` (centres undefined) here?
A: inactive

Q: For `O=C1C(=O)c2ccc(-c3ccccc3)cc2-c2ccccc21`, which percent span inhibition is on record?
A: inactive

Q: How did the percent span inhibition turn out when `OCCC1CN(Cc2nc3c(s2)CCCC3)CCN1Cc1ccsc1` (centres undefined) was run?
A: inactive

Q: For `O=C(CSc1ccc(-c2ccccc2)nn1)NCc1ccco1`, which percent span inhibition is on record?
A: inactive

Q: For `O=C(c1ccccc1NS(=O)(=O)c1ccc(Br)s1)N1CCCC1`, which percent span inhibition is on record?
A: inactive

Q: `CCc1ccc(/C=C/C(=O)c2cc(Br)ccc(=O)c2O)cc1` was tested. Which percent span inhibition did it give?
A: inactive

Q: For `CC1(C)CC(=O)C(C=NCCN2CCN(CCc3ccccc3)CC2)=C(O)C1`, which percent span inhibition is on record?
A: inactive

Q: How did the percent span inhibition turn out when `O=C(C1=NN(c2ccccc2)C2C(=O)N(c3ccccc3)C(=O)C12)c1ccccc1` (centres undefined) was run?
A: inactive

Q: `Cc1cc(-c2nn(-c3ccccc3)cc2/C=C2\SC(N)=NC2=O)ccc1OC(C)C` was tested. Which percent span inhibition did it give?
A: inactive

Q: With `Cc1cc(N/C(=N/S(=O)(=O)c2cc(F)ccc2F)c2ccccc2)n(-c2ccccc2)n1` as the molecule, how does the percent span inhibition read?
A: inactive

Q: With `CCOc1ccc(N2C(=O)C(Cl)=C(Nc3ccccc3O)C2=O)cc1` as the molecule, how does the percent span inhibition read?
A: inactive

Q: For `Cc1ccc(-c2ccc(CCC(=O)O)n2NC(=O)c2cccs2)cc1`, which percent span inhibition is on record?
A: inactive

Q: `CC1CC2=C(NC(=S)NC2c2cccc(F)c2)/C(=C/c2cccc(F)c2)C1` (centres undefined) was tested. Which percent span inhibition did it give?
A: inactive

Q: For `Cc1nn(-c2ccc(Cl)c(Cl)c2)c(C)c1C(=O)O`, which percent span inhibition is on record?
A: inactive

Q: How did the percent span inhibition turn out when `O=C(NCc1ccccn1)c1ccc2nc(-c3ccco3)c(-c3ccco3)nc2c1` was run?
A: inactive

Q: `O=C(NC1=NCCS1)NC12CC3CC(CC(C3)C1)C2` was tested. Which percent span inhibition did it give?
A: inactive

Q: Which percent span inhibition does the source give for `CC(C)NS(=O)(=O)c1ccc(OCC(=O)Nc2ccc(F)cc2)cc1` here?
A: inactive

Q: How did the percent span inhibition turn out when `Clc1ccc2c(N/N=C/c3ccc(Br)cc3)ccnc2c1` was run?
A: inactive

Q: How did the percent span inhibition turn out when `O=C(Nc1ccccn1)c1cc2ccccc2o1` was run?
A: inactive

Q: Which percent span inhibition does the source give for `CCOC(=O)c1nc(Nc2ccc(N3CCC(C)CC3)cc2)c2ccccc2n1` here?
A: inactive

Q: With `Cc1ccc(NC(=O)C/C(N)=N/OC(=O)c2ccccc2)cc1` as the molecule, how does the percent span inhibition read?
A: inactive
